Assay results as given in PubChem BioAssay AID2060491 (Molecular Pharmacology Branch, DTP, NCI, 2025).

System: 857933-349-R-J2-PDC complex spheroids, viability
Experiment: Anticancer human tumor 857933-349-R-J2-PDC patient-derived colon adenocarcinoma cell line growth inhibition [GQUAD]
Details: for IC50: curve of first compound; for viability, T/C: stronger effect = lower value
Summary of the method: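 Viability of tumor cells grown as complex spheroids with endothelial and stromal cells, exposed to drug combinations. Top concentration at or near clinical Cmax (else 10 microM), diluted in half-log increments.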

[1] = second compound 0.0316 µM, first compound 0.0316 µM
[2] = second compound 0.0316 µM, first compound 0.1 µM
[3] = second compound 0.0316 µM, first compound 0.316 µM
[4] = second compound 0.0316 µM, first compound 1 µM
[5] = second compound 0.0316 µM, first compound 3.16 µM
[6] = second compound 0.0316 µM, first compound 10 µM
[7] = second compound 0.1 µM, first compound 0.0316 µM
[8] = second compound 0.1 µM, first compound 0.1 µM
[9] = second compound 0.1 µM, first compound 0.316 µM
[10] = second compound 0.1 µM, first compound 1 µM
[11] = second compound 0.1 µM, first compound 3.16 µM
[12] = second compound 0.1 µM, first compound 10 µM
[13] = second compound 0.316 µM, first compound 0.0316 µM
[14] = second compound 0.316 µM, first compound 0.1 µM
[15] = second compound 0.316 µM, first compound 0.316 µM
[16] = second compound 0.316 µM, first compound 1 µM
[17] = second compound 0.316 µM, first compound 3.16 µM
[18] = second compound 0.316 µM, first compound 10 µM
[19] = second compound 1 µM, first compound 0.0316 µM
[20] = second compound 1 µM, first compound 0.1 µM
[21] = second compound 1 µM, first compound 0.316 µM
[22] = second compound 1 µM, first compound 1 µM
[23] = second compound 1 µM, first compound 3.16 µM
[24] = second compound 1 µM, first compound 10 µM
[25] = second compound 3.16 µM, first compound 0.0316 µM
[26] = second compound 3.16 µM, first compound 0.1 µM
[27] = second compound 3.16 µM, first compound 0.316 µM
[28] = second compound 3.16 µM, first compound 1 µM
[29] = second compound 3.16 µM, first compound 3.16 µM
[30] = second compound 3.16 µM, first compound 10 µM
[31] = second compound 10 µM, first compound 0.0316 µM
[32] = second compound 10 µM, first compound 0.1 µM
[33] = second compound 10 µM, first compound 0.316 µM
[34] = second compound 10 µM, first compound 1 µM
[35] = second compound 10 µM, first compound 3.16 µM
[36] = second compound 10 µM, first compound 10 µM
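Also: spheroids exposed to compounds for one week before readout.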
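For viability, T/C in this document: percent viability relative to vehicle DMSO wells taken as 100%.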

## C=CC(=O)N1CCN(c2nc(=O)n(-c3c(C)ccnc3C(C)C)c3nc(-c4c(O)cccc4F)c(F)cc23)C(C)C1 (stereo unspecified) + Cc1[nH]c2ccc(F)cc2c1-c1nc2c3cccnc3c3ncccc3c2[nH]1
Second compound 0.0316 µM
  IC50: > 10 µM
Second compound 0.1 µM
  IC50: > 10 µM
Second compound 0.316 µM
  IC50: > 10 µM
Second compound 1 µM
  IC50: > 10 µM
Second compound 3.16 µM
  IC50: > 10 µM
Second compound 10 µM
  IC50: > 10 µM
[1]
  viability, T/C: 102%
[2]
  viability, T/C: 106%
[3]
  viability, T/C: 96.7%
[4]
  viability, T/C: 102%
[5]
  viability, T/C: 109%
[6]
  viability, T/C: 86%
[7]
  viability, T/C: 98.9%
[8]
  viability, T/C: 101%
[9]
  viability, T/C: 96.5%
[10]
  viability, T/C: 104%
[11]
  viability, T/C: 103%
[12]
  viability, T/C: 93.4%
[13]
  viability, T/C: 95.1%
[14]
  viability, T/C: 100%
[15]
  viability, T/C: 101%
[16]
  viability, T/C: 97.4%
[17]
  viability, T/C: 104%
[18]
  viability, T/C: 89%
[19]
  viability, T/C: 101%
[20]
  viability, T/C: 106%
[21]
  viability, T/C: 96.3%
[22]
  viability, T/C: 104%
[23]
  viability, T/C: 108%
[24]
  viability, T/C: 89.2%
[25]
  viability, T/C: 99%
[26]
  viability, T/C: 110%
[27]
  viability, T/C: 91.3%
[28]
  viability, T/C: 99%
[29]
  viability, T/C: 104%
[30]
  viability, T/C: 95.3%
[31]
  viability, T/C: 102%
[32]
  viability, T/C: 98.2%
[33]
  viability, T/C: 88.2%
[34]
  viability, T/C: 92.7%
[35]
  viability, T/C: 99%
[36]
  viability, T/C: 84.7%

## CC(C)n1c(=O)n(C)c2cnc3cc(F)c(-c4ccc(OCCCN5CCCCC5)nc4)cc3c21 + Cc1[nH]c2ccc(F)cc2c1-c1nc2c3cccnc3c3ncccc3c2[nH]1
Second compound 0.0316 µM
  IC50: > 10 µM
Second compound 0.1 µM
  IC50: > 10 µM
Second compound 0.316 µM
  IC50: > 10 µM
Second compound 1 µM
  IC50: > 10 µM
Second compound 3.16 µM
  IC50: > 10 µM
Second compound 10 µM
  IC50: > 10 µM
[1]
  viability, T/C: 100%
[2]
  viability, T/C: 102%
[3]
  viability, T/C: 107%
[4]
  viability, T/C: 102%
[5]
  viability, T/C: 107%
[6]
  viability, T/C: 84%
[7]
  viability, T/C: 94.8%
[8]
  viability, T/C: 115%
[9]
  viability, T/C: 98.5%
[10]
  viability, T/C: 95.4%
[11]
  viability, T/C: 105%
[12]
  viability, T/C: 79.9%
[13]
  viability, T/C: 102%
[14]
  viability, T/C: 101%
[15]
  viability, T/C: 102%
[16]
  viability, T/C: 107%
[17]
  viability, T/C: 110%
[18]
  viability, T/C: 83.5%
[19]
  viability, T/C: 98.4%
[20]
  viability, T/C: 106%
[21]
  viability, T/C: 101%
[22]
  viability, T/C: 107%
[23]
  viability, T/C: 128%
[24]
  viability, T/C: 79.3%
[25]
  viability, T/C: 105%
[26]
  viability, T/C: 103%
[27]
  viability, T/C: 115%
[28]
  viability, T/C: 98.6%
[29]
  viability, T/C: 111%
[30]
  viability, T/C: 83.8%
[31]
  viability, T/C: 102%
[32]
  viability, T/C: 103%
[33]
  viability, T/C: 108%
[34]
  viability, T/C: 103%
[35]
  viability, T/C: 103%
[36]
  viability, T/C: 88.9%

## CC[C@@]1(O)C(=O)OCc2c1cc1n(c2=O)Cc2cc3c(CN(C)C)c(O)ccc3nc2-1 + Cc1[nH]c2ccc(F)cc2c1-c1nc2c3cccnc3c3ncccc3c2[nH]1
Second compound 0.0316 µM
  IC50: 0.153 µM
Second compound 0.1 µM
  IC50: 0.13 µM
Second compound 0.316 µM
  IC50: 0.144 µM
Second compound 1 µM
  IC50: 0.164 µM
Second compound 3.16 µM
  IC50: 0.132 µM
Second compound 10 µM
  IC50: 0.192 µM
Second compound 0.0316 µM, first compound 0.000999 µM
  viability, T/C: 96.7%
Second compound 0.0316 µM, first compound 0.00316 µM
  viability, T/C: 94.6%
Second compound 0.0316 µM, first compound 0.00999 µM
  viability, T/C: 89.8%
[1]
  viability, T/C: 63.5%
Second compound 0.0316 µM, first compound 0.0999 µM
  viability, T/C: 60.8%
[3]
  viability, T/C: 39.6%
Second compound 0.1 µM, first compound 0.000999 µM
  viability, T/C: 91.8%
Second compound 0.1 µM, first compound 0.00316 µM
  viability, T/C: 99.7%
Second compound 0.1 µM, first compound 0.00999 µM
  viability, T/C: 90.2%
[7]
  viability, T/C: 67.7%
Second compound 0.1 µM, first compound 0.0999 µM
  viability, T/C: 56.6%
[9]
  viability, T/C: 39.7%
Second compound 0.316 µM, first compound 0.000999 µM
  viability, T/C: 102%
Second compound 0.316 µM, first compound 0.00316 µM
  viability, T/C: 93.6%
Second compound 0.316 µM, first compound 0.00999 µM
  viability, T/C: 97.6%
[13]
  viability, T/C: 72.6%
Second compound 0.316 µM, first compound 0.0999 µM
  viability, T/C: 54.9%
[15]
  viability, T/C: 42.8%
Second compound 1 µM, first compound 0.000999 µM
  viability, T/C: 103%
Second compound 1 µM, first compound 0.00316 µM
  viability, T/C: 89.1%
Second compound 1 µM, first compound 0.00999 µM
  viability, T/C: 92.8%
[19]
  viability, T/C: 73.9%
Second compound 1 µM, first compound 0.0999 µM
  viability, T/C: 60.5%
[21]
  viability, T/C: 36.6%
Second compound 3.16 µM, first compound 0.000999 µM
  viability, T/C: 97.8%
Second compound 3.16 µM, first compound 0.00316 µM
  viability, T/C: 95.7%
Second compound 3.16 µM, first compound 0.00999 µM
  viability, T/C: 88.8%
[25]
  viability, T/C: 90.8%
Second compound 3.16 µM, first compound 0.0999 µM
  viability, T/C: 53.4%
[27]
  viability, T/C: 39.2%
Second compound 10 µM, first compound 0.000999 µM
  viability, T/C: 105%
Second compound 10 µM, first compound 0.00316 µM
  viability, T/C: 86.2%
Second compound 10 µM, first compound 0.00999 µM
  viability, T/C: 89.4%
[31]
  viability, T/C: 73.7%
Second compound 10 µM, first compound 0.0999 µM
  viability, T/C: 62.6%
[33]
  viability, T/C: 40.4%
